Source: patent US10064862B2, “Antiviral axin stabilizer” (priority 2014, dated 2018)
Entries after “also recorded” stand apart in the source; their conditions may differ.

What was measured:
[1] = test system: H1N1 influenza A/PR/8/34 virus; assay: Viral gene mRNA in OE-Axin1 HEK293 cells pretreated with inhibitors; type: cell-based
[2] = test system: Axin1-stimulated IFN response; assay: Axin1-stimulated IFN and ISG mRNA in OE-Axin1 HEK293 cells pretreated with inhibitors; type: cell-based, human; details: OE-Axin1, MOI=2
ISRE activity = assay: ISRE_Luc dual-luciferase assay in OE-Axin1 HEK293 cells pretreated with inhibitors; type: cell-based, human; details: 10 μM inhibitor, OE-Axin1, MOI=2 for 8 hours
[3] = test system: H1N1 influenza A/PR/8/34 virus; assay: Lethal influenza virus challenge in mice (lung virus titer, survival); type: in vivo, mouse; details: for survival rate after lethal virus challenge: mice, 1,000 pfu, RN-1 50 mg/kg orally daily, -1 to 2 or 4 dpi
Experimental: Mice were challenged intranasally with a lethal dose (1,000 pfu) of H1N1 influenza A/PR/8/34 virus. […] Control animals received vehicle alone. […] (C) Virus titer in the homogenized infected lungs at 2 dpi was measured by TCID50 assay in MDCK cells and normalized to total protein amount. […] Data shown are means±s.e.m. and tested for statistical significance by Student's t-test. (D) Survival rate. […] Mantel-Cox χ2 test on Kaplan-Meier survival data was used to compare the survival rate between groups.
Male C57BL/6N mice (6-8 week old) were challenged intranasally with a lethal dose (1,000 pfu) of influenza virus A/PR/8/34 H1N1 under anesthesia. […] Control animals were given vehicle alone in the same formulation. All animals were observed daily for body weight loss and clinical signs of disease such as ruffled fur, inactivity and difficulty in breathing until 21 days post infection.
MDCK cells in 96-well plates were infected with serial dilutions (10^−1 to 10^−7) of virus samples in serum-free complete EMEM containing 1 μg/ml TPCK-treated trypsin for 1 hour. The cells were re-fed with the same medium for 4 days. TCID50 values (median tissue culture infective dose) were calculated by the method of Reed and Muench.
The results were analyzed by one-way ANOVA followed with posthoc Tukey's test for multiple comparisons of control and treatment groups, or Student's t-test using GraphPad Prism (version 6). Survival rates between groups were analyzed by Mantel-Cox χ2 test on Kaplan-Meier probability estimates using GraphPad Prism. All results were reported as mean±s.e.m.

Axin1 [4] = type: in vivo, mouse; details: oral administration of RN-1 for 24 hours, 50 mg/kg
Axin1 [5] = assay: Axin1 stabilization in A549 cells (immunostaining, Western blot); type: cell-based, human
herpes simplex virus = details: previously reported; cited from earlier work
[6] = test system: nonO/p54(nrb), SFPQ, and hnRNP M; type: cell-based, human; details: A549 cells, 20 μM RN-1 24 hours pretreatment, MOI=2
[7] = test system: H1N1 influenza A/PR/8/34 virus; type: cell-based
[8] = test system: IFN and IFN-stimulated gene (ISG) expression; assay: IFNα1 and MX1 mRNA by Real-time PCR in primary mouse alveolar epithelial cells; type: cell-based
[9] = test system: H1N1 influenza A/PR/8/34 virus; assay: organism not typed; type: cell-based
A549 cells = details: all the concentrations tested (30-80,000 nM), MTT assay
[10] = test system: influenza virus A/Puerto Rico/8/1934 H1N1; type: in vivo, mouse; details: mice, 250 pfu, 50 μl 10× Wnt3a_CM intranasally 4 hours before and 2 days post infection, lungs day 5
[11] = test system: H1N1 influenza A/PR/8/34 virus; type: cell-based; details: E10 cells, 250 ng/ml rhWnt3a or 50% Wnt3a_CM 24 hours pretreatment, MOI=2 for 18 hours
[12] = 10 μM inhibitor 6 hours pretreatment
[13] = primary mouse alveolar epithelial cells during virus infection, 20 μM RN-1, 12 hpi

COc1cc2c(cc1OC)CN(C(=O)/C=C/c1c(-c3ccccc3)n(C)c3ncccc13)CC2 [SIS3]
effect on Axin1-mediated attenuation of influenza virus replication (viral gene mRNA) [1]: relived Axin1-mediated attenuation of influenza virus replication | Axin1-stimulated IFN mRNA expression (IFNβ1, IFNα1, IFNα7, IFNλ1) [2, 12]: the same inhibitory effect on Axin1-elevated anti-viral machinery except IFNβ1 synthesis (FIG. 7A) and MX1 expression (FIG. 7E); also recorded: only inhibited Axin1-induced expression of IFNα but not IFNβ1 | Axin1-stimulated ISGs expression (OAS1, MX1, IP10) [2, 12]: the same inhibitory effect on Axin1-elevated anti-viral machinery except IFNβ1 synthesis (FIG. 7A) and MX1 expression (FIG. 7E) | Axin1-regulated Type I and Type III IFN synthesis ([2]; 10 μM inhibitor): the same inhibitory effect in both scenarios | Axin1-stimulated ISRE activity (ISRE activity): the same inhibitory effect

Oc1nc(-c2ccc(C(F)(F)F)cc2)nc2c1CSCC2 [RN-1, 3,5,7,8-Tetrahydro-2-[4-(trifluoromethyl)phenyl]-4H-thiopyrano[4,3-d]pyrimidin-4-one]
survival rate after lethal virus challenge [3]: dramatically improved | survival rate after lethal virus challenge ([3]; listed as XAV939): protected animals from lethal influenza virus challenge | influenza virus replication in vivo (virus titer in infected lungs at 2 dpi) ([3]; mouse, in vivo, po): significantly attenuated | Axin1 protein in the mouse lung (Axin1 [4]): successfully stabilized Axin1 | Axin1 protein during influenza virus infection (Axin1 [5]): Axin1 was not degraded | herpes simplex virus replication (herpes simplex virus): inhibit herpes simplex virus replication | degradation of nonO/p54(nrb), SFPQ and hnRNP M [6]: stimulated the degradation of all three proteins | virus replication (virus titer) [7]: notably inhibited; also recorded: significantly inhibited virus replication | mRNA expression of IFNα1 [8, 13]: increased the mRNA expression | mRNA expression of the ISG MX1 [8, 13]: increased the mRNA expression | baseline IFN gene expression ([8]; uninfected cells): had no effects | maximum inhibition of influenza virus replication [9]: over 99% | virus replication (virus titer in supernatants) [9]: significantly attenuated | EC50 ([9]; A549, 24 h, read-out: EC50 of attenuation of influenza virus replication (virus titers in culture media)): 419 nM | cell viability (A549 cells): did not affect cell viability

B1: Wnt3a: activator of Wnt/β-catenin signaling, given as rhWnt3a or Wnt3a_CM (protein, UniProt P56704 19-352, looked up)
Protein Wnt-3a: SYPIWWSLAVGPQYSSLGSQPILCASIPGLVPKQLRFCRNYVEIMPSVAEGIKIGIQECQHQFRGRRWNCTTVHDSLAIFGPVLDKATRESAFVHAIASAGVAFAVTRSCAEGTAAICGCSSRHQGSPGKGWKWGGCSEDIEFGGMVSREFADARENRPDARSAMNRHNNEAGRQAIASHMHLKCKCHGLSGSCEVKTCWWSQPDFRAIGDFLKDKYDSASEMVVEKHRESRGWVETLRPRYTYFKVPTERDLVYYEASPNFCEPNPETGSFGTRDRTCNVSSHGIDGCDLLCCGRGHNARAERRREKCRCVFHWCCYVSCQECTRVYDVHTCK
virus replication in vivo (viral gene mRNA in lungs) [10]: dramatically promotes virus replication | virus replication in vitro (viral gene mRNA) [11]: dramatically promotes virus replication
